According to patent publication US7253149B2, “Compounds and methods for modulating cell-adhesion mediated drug resistance” (University of South Florida, priority 2000, dated 2007):
Read-outs that look alike come from different tables or passages of the source. Marks after values point to notes of the source that are not given here. Where no end group is shown, it is not given here. [ ]: non-standard residue; d: D form.

How the values were obtained:
K562 cells [1] = assay: MTT cytotoxicity assay, FN adhered vs suspension K562 cells; type: cell-based
Description: Plastic 96-well Immunosorp plates (Nunc, Denmark) are coated with 50 μl (40 μg/ml) FN (Life Technologies) or BSA overnight. Cells are washed once and resuspended in serum-free RPMI 1640, then 2×10^4 (K562) cells are added to each FN coated well. 8×10^3 (K562) cells are added to BSA coated wells. Cells are incubated for 2 hours at 37° C., washed with serum free media, and put back into serum-containing media. Following 24 hours in a tissue culture incubator, drug or vehicle control is added to each well for 90 minutes, media is removed and replaced by drug-free media for 96 hours. In some experiments, the drug is allowed to remain in each well for 96 hours. 50 μl 3-[4,5-Dimethylthiazol-2-yl]-2,5-diphenyltetrazolium bromide;Thiazolyl blue (MTT dye) (Sigma) is added to each well for 4 hours, plates are centrifuged and each well aspirated. Dye is solubilized with 100 μl DMSO and plates are read at 540 nm on an automated microtiter plate reader. A blank well containing only medium and drug is also run as a control in all experiments. IC50 values are calculated by linear regression analysis of percent survival vs. drug concentration.
The MTT assay is used to detect differences in the drug sensitivity of FN adhered vs. suspension-cultured cells following a 90 minutes or 96 hours (continuous) exposure to either mitoxantrone or melphalan (L-phenylalanine mustard or LPAM). After a 96 hour period in a cell incubator, cell survival is determined by the ability of viable cells to reduce MTT dye to formazan. IC50 values are derived through linear regression of the log-linear dose-response plots for each cell line to each drug. Student's T-test is used to analyze differences in drug response using data collected from at least three different experiments. FIGS. 8A and 8B depict representative continuous exposure experiments using mitoxantrone and LPAM, respectively.

K562 cells [2] = assay: Adhesion of K562 cells to FN in presence of AG957; type: cell-based; conditions: concentrations of inhibitor used in cytotoxicity assays
Description: Cellular adhesion to FN is determined.
The BCR/ABL kinase is believed to be critical to the survival of CML cells through its effects on a number of signal transduction pathways. Inhibitors of this fusion protein show promise as apoptosis-inducing drugs in CML cells. BCR/ABL inhibition by relatively high doses of the tyrphostin AG957 can have negative effects on FN adhesion. At the concentrations of inhibitor used in cytotoxicity assays, the adhesion of K562 cells to FN is not affected by more than 20–40 percent.

[3] = test system: BCR/ABL-associated tyrosine kinase activity; assay: Anti-phosphotyrosine immunoblotting of AG957 treated K562 cells; conditions: 20 μM AG957, four hours
K562 cells [4] = type: cell-based
8226/S myeloma cells [5] = assay: Annexin V apoptotic analysis, FN-adhered vs non-adhered 8226/S cells; type: cell-based, human; conditions: 50 uM melphalan, 24 hours
8226/S myeloma cells [6] = assay: MTT cytotoxicity assay, FN-adhered vs non-adhered 8226/S cells; type: cell-based, human; conditions: for IC50: Homo sapiens
8226/S = type: cell-based, human
[7] = test system: K562/pcDNA3.1 and K562/VLA-4 cells; assay: Annexin V apoptosis analysis of α4 and empty vector transfectants adhered to FN with blocking antibodies; type: cell-based; conditions: for level of cytoprotection in comparison to drug treated suspension cells: 100 μM LPAM 90 minutes, 24 hours; for protection against melphalan-induced apoptosis: α5 blocking antibody prior to adhesion
fibronectin = assay: cell-based or functional assay
U937 cells = assay: Microtiter adhesion assay, adhesion of U937 cells to fibronectin; type: cell-based; conditions: 5 μg/ml to 80 μg/ml, FIG. 26
[8] = biological target: integrin β7 subunit (human) (UniProt P26010); assay: flow cytometry (FACS) on 8226/LR5 cells, FITC-conjugated secondary antibody
Sequence of UniProt P26010 (P26010 20-798): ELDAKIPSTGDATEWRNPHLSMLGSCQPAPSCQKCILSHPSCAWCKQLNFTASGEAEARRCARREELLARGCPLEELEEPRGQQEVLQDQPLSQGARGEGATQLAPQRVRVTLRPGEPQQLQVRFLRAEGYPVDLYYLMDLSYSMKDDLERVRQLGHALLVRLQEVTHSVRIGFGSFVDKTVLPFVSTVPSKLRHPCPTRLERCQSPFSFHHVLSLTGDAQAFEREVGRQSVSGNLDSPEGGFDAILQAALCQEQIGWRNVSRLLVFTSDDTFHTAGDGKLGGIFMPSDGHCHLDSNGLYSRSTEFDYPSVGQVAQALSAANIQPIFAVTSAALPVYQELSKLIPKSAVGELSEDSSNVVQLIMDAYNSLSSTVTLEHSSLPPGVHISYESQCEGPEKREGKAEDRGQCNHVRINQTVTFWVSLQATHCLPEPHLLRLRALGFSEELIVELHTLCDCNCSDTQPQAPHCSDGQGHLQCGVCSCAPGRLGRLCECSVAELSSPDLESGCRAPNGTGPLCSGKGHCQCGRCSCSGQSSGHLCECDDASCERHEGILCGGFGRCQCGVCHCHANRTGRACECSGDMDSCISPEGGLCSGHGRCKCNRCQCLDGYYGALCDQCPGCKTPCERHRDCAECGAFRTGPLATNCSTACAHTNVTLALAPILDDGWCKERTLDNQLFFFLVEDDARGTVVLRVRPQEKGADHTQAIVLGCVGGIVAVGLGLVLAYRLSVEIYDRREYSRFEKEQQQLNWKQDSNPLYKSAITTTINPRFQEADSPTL

[9] = biological target: integrin β7 subunit (human) (UniProt P26010); assay: flow cytometry (FACS) on 8226/DOX6 cells, FITC-conjugated secondary antibody
[10] = biological target: integrin β7 subunit (human) (UniProt P26010); assay: flow cytometry (FACS) on 8226/S cells, FITC-conjugated secondary antibody
[11] = biological target: integrin α5 subunit (CDw49e) (human) (UniProt P08648); assay: flow cytometry (FACS) on 8226/LR5 cells, FITC-conjugated secondary antibody
[12] = biological target: VLA-5 (α5β1 integrin) (human) (UniProt P08648); assay: cell-based or functional assay
[13] = biological target: integrin α5 subunit (CDw49e) (human) (UniProt P08648); assay: flow cytometry (FACS) on 8226/DOX6 cells, FITC-conjugated secondary antibody
[14] = biological target: integrin α5 subunit (CDw49e) (human) (UniProt P08648); assay: flow cytometry (FACS) on 8226/S cells, FITC-conjugated secondary antibody
[15] = biological target: integrin α4 subunit (CDw49d) (human) (UniProt P13612); assay: flow cytometry (FACS) on 8226/LR5 cells, FITC-conjugated secondary antibody
[16] = biological target: integrin α4 subunit (CDw49d) (human) (UniProt P13612); assay: flow cytometry (FACS) on 8226/DOX6 cells, FITC-conjugated secondary antibody
[17] = biological target: integrin α4 subunit (CDw49d) (human) (UniProt P13612); assay: flow cytometry (FACS) on 8226/S cells, FITC-conjugated secondary antibody

COC(=O)c1ccc(NCc2cc(O)ccc2O)cc1 [AG957]
fold resistance of FN adhered cells over suspension cells (K562 cells [1]; AG957 for 96 hours): 3.6 | IC50 (K562 cells [1]; AG957 for 96 hours, three independent experiments, read-out: mean IC50 FN adhered cells): 12.9 µM | IC50 (K562 cells [1]; AG957 for 96 hours, three independent experiments, read-out: mean IC50 suspension grown cells): 3.6 µM | effect on adhesion of K562 cells to FN (K562 cells [2]): 20–40% | BCR/ABL associated tyrosine phosphorylation [3]: completely abrogated

Nc1ccn([C@@H]2O[C@H](CO)[C@@H](O)[C@@H]2O)c(=O)n1 [Ara-C]
% Control death (K562 cells [4]): 54.9* % | FN: mean death (K562 cells [4]): 6.2 ± 1.6 | Suspension: mean death (K562 cells [4]): 11.3 ± 5.5

N[C@@H](Cc1ccc(N(CCCl)CCCl)cc1)C(=O)O [LPAM, L-phenylalanine nitrogen mustard]
FN: mean death (K562 cells [4]; 100 μM, 1 hr): 11.0 ± 8.3 | Suspension: mean death (K562 cells [4]; 100 μM, 1 hr): 37.5 ± 24.0 | % Control death (K562 cells [4]; 100 μM, 1 hr, FN vs suspension): 29.3* % | FN: mean death (K562 cells [4]; 100 μM, cont. exp.): 23.3 ± 6.4 | Suspension: mean death (K562 cells [4]; 100 μM, cont. exp.): 39.8 ± 3.2 | % Control death (K562 cells [4]; 100 μM, cont. exp., FN vs suspension): 58.5* % | IC50 (K562 cells [1]; Homo sapiens, K562, 1.5 h, 90 min. exposure, FN adhered, read-out: Fibronectin mean IC50): 190 µM | IC50 (K562 cells [1]; Homo sapiens, K562, 1.5 h, 90 min. exposure, read-out: Suspension mean IC50): 29.3 µM | IC50 (K562 cells [1]; Homo sapiens, K562, 1.5 h, 90 minutes exposure, text b188, read-out: mean IC50 suspension (printed without exponent and unit)): 29.3 µM | IC50 (K562 cells [1]; Homo sapiens, K562, continuous (96 hours) exposure, FN adhered, read-out: Fibronectin mean IC50): 57.3 µM | IC50 (K562 cells [1]; Homo sapiens, K562, continuous (96 hours) exposure, read-out: Suspension mean IC50): 25.5 µM | Fold resistance FN adhered vs suspension (K562 cells [1]; continuous exposure): 2.25 fold | percentage of apoptotic cells, FN-adhered (8226/S myeloma cells [5]): 16.53% | percentage of apoptotic cells, non-adhered (8226/S myeloma cells [5]): 21.5% | IC50 (8226/S myeloma cells [6]; read-out: mean IC50 value for FN-adhered cells): 48 µM | IC50 (8226/S myeloma cells [6]; read-out: mean IC50 value for cells grown on BSA): 30 µM | mean difference FN-adhered vs BSA (8226/S myeloma cells [6]; n=3): 1.7 | effect of acute exposure on cell surface integrin expression (8226/S): no immediate effects | level of cytoprotection in comparison to drug treated suspension cells ([7]; K562/VLA-4 adhering through both α4 and α5): 30.0±1.5% | level of cytoprotection in comparison to drug treated suspension cells ([7]; K562/pcDNA3.1 adhered through α5 alone): 29.9±5.3% | protection against melphalan-induced apoptosis ([7]; K562/VLA-4): 20.6±1.9% | protection against melphalan-induced apoptosis ([7]; K562/pcDNA3.1): 0±11.1%

CC[C@]1(O)C[C@H]2CN(CCc3c([nH]c4ccccc34)[C@@](C(=O)OC)(c3cc4c(cc3OC)N(C=O)[C@H]3[C@@](O)(C(=O)OC)[C@H](OC(C)=O)[C@]5(CC)C=CCN6CC[C@]43[C@@H]65)C2)C1 [VCR, vincristine]
FN-mediated protection against the drug (K562 cells [4]; continuous exposure): not significant

COc1cccc2c1C(=O)c1c(O)c3c(c(O)c1C2=O)C[C@@](O)(C(=O)CO)C[C@@H]3O[C@H]1C[C@H](N)[C@H](O)[C@H](C)O1 [doxorubicin, Doxorubicin]
effect of acute exposure on cell surface integrin expression (8226/S; wide range of concentrations, 1–48 hours): no immediate effects

O=C1c2c(O)ccc(O)c2C(=O)c2c(NCCNCCO)ccc(NCCNCCO)c21 [mitoxantrone]
Fold resistance FN adhered vs suspension (K562 cells [1]; 90 min. exposure): approximately 3.7 fold | Fold resistance FN adhered vs suspension (K562 cells [1]; continuous exposure): 6.8 fold

VLA-4 (α4β1 integrin, Very Late Activation Antigen 4) (from UniProt P13612 34-1032; P05556 21-798)
level of cytoprotection against melphalan-induced apoptosis in comparison to drug treated suspension cells (Annexin V, flow cytometry) (fibronectin): 20.6 percent

VLA-5 (α5β1 integrin) (from UniProt P08648 42-1049; P05556 21-798) (receptor)
level of cytoprotection against melphalan-induced apoptosis in comparison to drug treated suspension cells (Annexin V, flow cytometry) (fibronectin): 29.9 percent

kmviywkag ([dK][dM][dV][dI][dY][dW][dK][dA]G) [RZ-3, D-amino acid peptide Lys-Met-Val-Ile-Tyr-Trp-Lys-Ala-Gly, each amino acid a D-amino acid]
effect on adhesion of U937 cells to FN (U937 cells): effective in preventing FN adhesion

monoclonal antibody FIB504 (anti-β7)
mean fluorescence intensity [8]: 40.2 | mean fluorescence intensity [9]: 18.5 | mean fluorescence intensity [10]: 5.72

monoclonal antibody P1D6 (anti-CDw49e, α5)
mean fluorescence intensity [11]: 11.9 | level of cytoprotection against melphalan-induced apoptosis in comparison to drug treated suspension cells (Annexin V, flow cytometry) [12]: 0 percent | mean fluorescence intensity [13]: 7.32 | mean fluorescence intensity [14]: 14.2

monoclonal antibody P4G9 (anti-CDw49d, α4)
mean fluorescence intensity [15]: 46.5 | mean fluorescence intensity [16]: 69 | mean fluorescence intensity [17]: 10.4
